# Laboratory results published in US20250186463A1, “ABIRATERONE DECANOATE PRODRUGS AND USE IN THERAPY” (PROPELLA THERAPEUTICS, INC., priority 2022, published 2025).
# Assays:
# [1] = IM injection of abiraterone acetate formulations in rats; format: in vivo; conditions: vegetable oil solution versus aqueous suspension
# Experimental: Typically, the abiraterone prodrugs of the present disclosure are formulated as a non-aqueous solution or suspension. In some embodiments, the non-aqueous solution or suspension provides higher levels of abiraterone in the plasma for a longer duration, when compared to an aqueous solution or suspension. For example, as detailed herein, IM injections of an aqueous suspension and a vegetable oil solution of the abiraterone acetate prodrug were evaluated in rats. […] Accordingly, in some embodiments, the abiraterone prodrug formulations herein can include an abiraterone prodrug of the present disclosure (e.g., compound of Formula I or II) dissolved or dispersed in a pharmaceutically acceptable carrier. In some embodiments, the pharmaceutically acceptable carrier can be any suitable nonaqueous vehicle suitable for injection, such as those described in U.S. Pharmacopeia. In some embodiments, the pharmaceutically acceptable carrier can be a pharmaceutically acceptable oil, e.g., a vegetable oil, castor oil, corn oil, sesame oil, cottonseed oil, peanut oil, poppy seed oil, tea seed oil, or soybean oil. In some embodiments, the pharmaceutically acceptable oil can be oils (e.g., described herein), suitable for use as vehicles for injection, e.g., meeting the criteria as described in the corresponding U.S. Pharmacopeia monograph. […]
# [2] = system: mineralocorticoids, progesterone and pregnenolone; conditions: cited from earlier work
smiles,measurement,setting,value
"CC(=O)O[C@H]1CC[C@@]2(C)C(=CC[C@@H]3[C@@H]2CC[C@]2(C)C(c4cccnc4)=CC[C@@H]32)C1 [abiraterone acetate, (3)-17-(3-Pyridyl)androsta-5, acetate]",blood plasma levels and duration of exposure of abiraterone,[1],highest blood plasma levels and the longest duration of exposure
same,increases in concentrations of mineralocorticoids,[2]; oral administration,80 fold
same,"men with signs and symptoms of mineralocorticoid excess (hypertension, hypokalemia, edema)",[2]; oral administration,30%
same,increases in progesterone and pregnenolone,[2]; oral regimen,40 fold
